Measured values: patent US20260092071A1, “COMPOUNDS AND COMPOSITIONS AS SMARCA2/4 DEGRADERS AND USES THEREOF” (REGENTS OF THE UNIVERSITY OF MICHIGAN, priority 2022, published 2026)
Like-named read-outs stand apart in the source and are kept apart here.

Legend:
SMARCA4 = SMARCA4 (Homo sapiens, UniProt P51532); assay: HiBiT assay for protein degradation, Hela SMARCA4-HiBiT cells (A series); format: cell-based; design: fuse HiBiT to the carboxy terminus of SMARCA2 (Promega CS302365) or SMARCA4 (Promega CS3023225); host or cells: HeLa (CRISPR/Cas9 HiBiT knock-in); settings: for Dmax: read-out: SMARC A4 Hela HiBit Dmax(%); for DC50: read-out: SMARC A4 Hela HiBit DC50
Procedure: Hela cells were genetically modified via CRISPR/Cas9 to fuse HiBiT to the carboxy terminus of SMARCA2 (Promega CS302365) or SMARCA4 (Promega CS3023225). Cells were cultured in DMEM containing 10% FBS and 1% (Vol:Vol) penicillin-streptomycin. […] At the end of experiment, levels of SMARCA2 or SMARCA4 expression were assessed with Nano-Glo® HiBiT Lytic Detection Assay (Promega N3050). IC50 was obtained using the GraphPad Prism data analysis software.

SMARCA2 = SMARCA2 (Homo sapiens, UniProt P51531); assay: HiBiT assay for protein degradation, Hela SMARCA2-HiBiT cells (A series); format: cell-based; design: Hela cells were genetically modified via CRISPR/Cas9 to fuse HiBiT to the carboxy terminus of SMARCA2; host or cells: HeLa (CRISPR/Cas9 HiBiT knock-in); settings: for Dmax: read-out: SMARC A2 Hela HiBit Dmax (%); for DC50: read-out: SMARC A2 Hela HiBit DC50;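 for SMARC A2 Hela HiBit Dmax (%): 24 h compound treatment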
Procedure, shortened: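 HeLa cells engineered by CRISPR/Cas9 to carry a HiBiT tag fused to the C-terminus of SMARCA2 (Promega CS302365) were grown in DMEM supplemented with FBS and penicillin-streptomycin. After treatment, remaining SMARCA2 protein was quantified with the Nano-Glo® HiBiT Lytic Detection Assay (Promega N3050), and curves were fitted in GraphPad Prism.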

[1] = Hela SMARCA4-HiBiT cells, 24 hours treatment
[2] = Hela SMARCA2-HiBiT cells, 24 hours treatment

Chain of SMARCA4 (P51532 whole entry): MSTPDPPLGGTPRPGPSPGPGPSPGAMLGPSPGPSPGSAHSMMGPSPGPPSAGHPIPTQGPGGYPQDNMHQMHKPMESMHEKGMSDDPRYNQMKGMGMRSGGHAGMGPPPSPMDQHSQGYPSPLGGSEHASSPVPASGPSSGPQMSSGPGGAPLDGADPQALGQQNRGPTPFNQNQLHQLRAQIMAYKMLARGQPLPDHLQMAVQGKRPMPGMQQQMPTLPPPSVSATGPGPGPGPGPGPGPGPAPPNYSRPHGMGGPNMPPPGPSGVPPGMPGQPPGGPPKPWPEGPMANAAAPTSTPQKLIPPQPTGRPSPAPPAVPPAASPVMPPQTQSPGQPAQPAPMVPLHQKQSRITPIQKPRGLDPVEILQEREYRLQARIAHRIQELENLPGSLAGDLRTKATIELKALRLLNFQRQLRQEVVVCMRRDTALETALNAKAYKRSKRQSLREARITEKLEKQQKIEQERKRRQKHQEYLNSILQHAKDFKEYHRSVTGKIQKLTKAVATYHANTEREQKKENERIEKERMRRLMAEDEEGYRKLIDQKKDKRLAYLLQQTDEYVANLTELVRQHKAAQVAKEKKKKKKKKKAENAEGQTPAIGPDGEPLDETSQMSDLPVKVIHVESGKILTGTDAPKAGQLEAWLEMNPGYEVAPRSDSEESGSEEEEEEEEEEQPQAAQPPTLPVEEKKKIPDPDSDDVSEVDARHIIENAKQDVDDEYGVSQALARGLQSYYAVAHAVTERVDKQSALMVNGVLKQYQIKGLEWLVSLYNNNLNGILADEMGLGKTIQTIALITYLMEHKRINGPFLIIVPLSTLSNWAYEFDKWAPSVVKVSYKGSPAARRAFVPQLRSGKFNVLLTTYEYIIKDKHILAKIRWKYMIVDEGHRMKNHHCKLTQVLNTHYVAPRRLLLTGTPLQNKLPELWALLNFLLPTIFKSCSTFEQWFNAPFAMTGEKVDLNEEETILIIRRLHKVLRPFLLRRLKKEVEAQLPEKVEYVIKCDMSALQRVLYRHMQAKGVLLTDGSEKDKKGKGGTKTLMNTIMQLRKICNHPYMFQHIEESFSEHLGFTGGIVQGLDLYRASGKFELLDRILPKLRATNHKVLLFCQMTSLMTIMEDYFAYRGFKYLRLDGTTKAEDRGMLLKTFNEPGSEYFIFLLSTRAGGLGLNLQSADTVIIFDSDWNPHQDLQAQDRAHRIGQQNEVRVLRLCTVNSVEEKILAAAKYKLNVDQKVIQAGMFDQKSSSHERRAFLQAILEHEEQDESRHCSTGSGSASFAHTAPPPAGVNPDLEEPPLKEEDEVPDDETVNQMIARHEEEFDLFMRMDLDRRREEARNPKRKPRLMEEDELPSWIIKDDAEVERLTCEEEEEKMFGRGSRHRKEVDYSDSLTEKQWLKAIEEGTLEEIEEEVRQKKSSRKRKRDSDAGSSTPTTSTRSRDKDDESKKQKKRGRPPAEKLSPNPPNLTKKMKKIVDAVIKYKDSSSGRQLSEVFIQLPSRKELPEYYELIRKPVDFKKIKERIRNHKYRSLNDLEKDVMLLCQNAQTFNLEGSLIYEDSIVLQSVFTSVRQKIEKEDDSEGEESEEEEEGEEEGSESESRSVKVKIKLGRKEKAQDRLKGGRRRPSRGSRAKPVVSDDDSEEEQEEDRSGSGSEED
Chain of SMARCA2 (P51531 whole entry, the tested form may be a part): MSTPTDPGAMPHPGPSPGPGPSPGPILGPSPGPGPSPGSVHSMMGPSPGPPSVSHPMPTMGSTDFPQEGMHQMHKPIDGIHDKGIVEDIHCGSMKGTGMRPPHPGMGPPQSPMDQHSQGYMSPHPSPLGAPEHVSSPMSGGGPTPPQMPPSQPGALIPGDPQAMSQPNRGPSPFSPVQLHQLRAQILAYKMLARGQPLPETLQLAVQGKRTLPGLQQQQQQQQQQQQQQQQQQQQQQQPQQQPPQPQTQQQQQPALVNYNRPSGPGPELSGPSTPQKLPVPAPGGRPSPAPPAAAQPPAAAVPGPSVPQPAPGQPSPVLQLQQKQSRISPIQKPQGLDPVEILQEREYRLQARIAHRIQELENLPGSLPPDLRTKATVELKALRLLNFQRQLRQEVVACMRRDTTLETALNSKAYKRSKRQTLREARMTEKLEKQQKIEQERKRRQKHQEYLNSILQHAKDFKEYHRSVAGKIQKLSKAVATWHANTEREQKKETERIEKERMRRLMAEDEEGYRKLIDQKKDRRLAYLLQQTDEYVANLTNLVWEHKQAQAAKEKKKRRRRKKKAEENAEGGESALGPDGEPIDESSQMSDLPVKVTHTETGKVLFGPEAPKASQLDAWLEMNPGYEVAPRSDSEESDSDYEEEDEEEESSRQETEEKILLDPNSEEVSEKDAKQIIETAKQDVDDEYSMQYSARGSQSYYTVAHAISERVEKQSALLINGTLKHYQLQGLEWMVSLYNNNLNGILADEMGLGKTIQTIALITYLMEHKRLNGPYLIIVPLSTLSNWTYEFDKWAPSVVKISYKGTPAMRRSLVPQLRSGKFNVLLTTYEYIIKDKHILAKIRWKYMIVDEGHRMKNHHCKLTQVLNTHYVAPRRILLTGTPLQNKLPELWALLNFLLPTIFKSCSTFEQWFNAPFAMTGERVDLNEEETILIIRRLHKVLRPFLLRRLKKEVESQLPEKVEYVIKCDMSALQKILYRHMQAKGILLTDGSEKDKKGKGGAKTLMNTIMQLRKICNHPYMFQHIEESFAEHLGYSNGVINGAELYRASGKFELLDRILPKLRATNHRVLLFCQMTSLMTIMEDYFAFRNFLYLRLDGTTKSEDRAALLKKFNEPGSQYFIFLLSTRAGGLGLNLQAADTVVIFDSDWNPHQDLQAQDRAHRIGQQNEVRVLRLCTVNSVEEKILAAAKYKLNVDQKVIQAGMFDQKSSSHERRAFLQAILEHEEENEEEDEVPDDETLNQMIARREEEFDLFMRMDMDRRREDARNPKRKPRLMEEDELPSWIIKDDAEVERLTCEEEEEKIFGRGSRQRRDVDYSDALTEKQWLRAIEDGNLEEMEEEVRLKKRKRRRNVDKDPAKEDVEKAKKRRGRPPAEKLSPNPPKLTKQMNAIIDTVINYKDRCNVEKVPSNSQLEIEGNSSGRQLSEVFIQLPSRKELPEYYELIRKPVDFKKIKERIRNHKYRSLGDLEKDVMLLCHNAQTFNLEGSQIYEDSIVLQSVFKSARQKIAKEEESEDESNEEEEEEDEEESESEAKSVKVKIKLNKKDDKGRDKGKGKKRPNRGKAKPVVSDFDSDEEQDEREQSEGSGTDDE

SMARC A4 Hela HiBit DC50(nM) (SMARCA4; [1])	Dmax (SMARCA4; [1])	Dmax (SMARCA2; [2])	Compound	Dmax (SMARCA4; HeLa)	DC50 (SMARCA4; [1])	Dmax (SMARCA2; HeLa)	DC50 (SMARCA2; [2])
–	–	–	Cc1ncsc1-c1ccc([C@H](CCCCCN2CCC(c3ccc4c(c3)C3(CCCCC3)c3nc(=O)c5c(Br)cccc5n3-4)CC2)NC(=O)[C@@H]2C[C@@H](O)CN2C(=O)[C@@H](NC(=O)C2(F)CC2)C(C)(C)C)cc1 [Compound A4, (2S,4R)—N—((S)-6-(4-(4′-bromo-5′-oxo-5′H-spiro[cyclohexane-1,7′-indolo[1,2-a]quinazolin]-9′-yl)piperidin-1-yl)-1-(4-(4-methylthiazol-5-yl)phenyl)hexyl)-1-((S)-2-(1-fluorocyclopropane-1-carboxamido)-3,3-dimethylbutanoyl)-4-hydroxypyrrolidine-2-carboxamide]	> 90%	< 100 nM	> 90%	< 100 nM
–	–	–	Cc1ncsc1-c1ccc([C@H](C)NC(=O)[C@@H]2C[C@@H](O)CN2C(=O)[C@@H](NC(=O)CN2CCC(c3ccc4c(c3)C3(CCCCC3)c3nc(=O)c5c(Cl)cccc5n3-4)CC2)C(C)(C)C)cc1 [Compound A5, (2S,4R)-1-((S)-2-(2-(4-(4′-chloro-5′-oxo-5′H-spiro[cyclohexane-1,7′-indolo[1,2-a]quinazolin]-9′-yl)piperidin-1-yl)acetamido)-3,3-dimethylbutanoyl)-4-hydroxy-N—((S)-1-(4-(4-methylthiazol-5-yl)phenyl)ethyl) pyrrolidine-2-carboxamide]	> 90%	< 100 nM	> 90%	< 100 nM
–	–	–	Cc1ncsc1-c1ccc([C@H](C)NC(=O)[C@@H]2C[C@@H](O)CN2C(=O)[C@@H](NC(=O)CCN2CCC(c3ccc4c(c3)C3(CCCCC3)c3nc(=O)c5c(Cl)cccc5n3-4)CC2)C(C)(C)C)cc1 [Compound A6, (2S,4R)-1-((S)-2-(3-(4-(4′-chloro-5′-oxo-5′H-spiro[cyclohexane-1,7′-indolo[1,2-a]quinazolin]-9′-yl)piperidin-1-yl)propanamido)-3,3-dimethylbutanoyl)-4-hydroxy-N—((S)-1-(4-(4-methylthiazol-5-yl)phenyl)ethyl) pyrrolidine-2-carboxamide]	50 to 69%	501 to 1000 nM	70 to 90%	100 to 500 nM
–	–	–	Cc1ncsc1-c1ccc([C@H](C)NC(=O)[C@@H]2C[C@@H](O)CN2C(=O)[C@@H](NC(=O)CCCCN2CCC(c3ccc4c(c3)C3(CCCCC3)c3nc(=O)c5c(Cl)cccc5n3-4)CC2)C(C)(C)C)cc1 [Compound A8, (2S,4R)-1-((S)-2-(5-(4-(4′-chloro-5′-oxo-5′H-spiro[cyclohexane-1,7′-indolo[1,2-a]quinazolin]-9′-yl)piperidin-1-yl)pentanamido)-3,3-dimethylbutanoyl)-4-hydroxy-N—((S)-1-(4-(4-methylthiazol-5-yl)phenyl)ethyl) pyrrolidine-2-carboxamide]	< 50%	> 1000 nM	70 to 90%	100 to 500 nM
–	–	–	Cc1ncsc1-c1ccc([C@H](C)NC(=O)[C@@H]2C[C@@H](O)CN2C(=O)[C@@H](NC(=O)CCCCCN2CCC(c3ccc4c(c3)C3(CCCCC3)c3nc(=O)c5c(Cl)cccc5n3-4)CC2)C(C)(C)C)cc1 [Compound A9, (2S,4R)-1-((S)-2-(6-(4-(4′-chloro-5′-oxo-5′H-spiro[cyclohexane-1,7′-indolo[1,2-a]quinazolin]-9′-yl)piperidin-1-yl)hexanamido)-3,3-dimethylbutanoyl)-4-hydroxy-N—((S)-1-(4-(4-methylthiazol-5-yl)phenyl)ethyl) pyrrolidine-2-carboxamide]	50 to 69%	501 to 1000 nM	> 90%	< 100 nM
No fit	< 50%	50 to 69%	Cc1ncsc1-c1ccc([C@H](CCCCN2CCC(c3ccc4c(c3)-n3c(nc(=O)c5c(Cl)cccc53)C43CCOCC3)CC2)NC(=O)[C@@H]2C[C@@H](O)CN2C(=O)[C@@H](NC(=O)C2(F)CC2)C(C)(C)C)cc1 [Compound A10, (2S,4R)—N—((S)-5-(4-(4-chloro-5-oxo-2′,3′,5′,6′-tetrahydro-5H-spiro[indolo[1,2-a]quinazoline-7,4′-pyran]-10-yl)piperidin-1-yl)-1-(4-(4-methylthiazol-5-yl)phenyl)pentyl)-1-((S)-2-(1-fluorocyclopropane-1-carboxamido)-3,3-dimethylbutanoyl)-4-hydroxypyrrolidine-2-carboxamide]	–	–	–	501 to 1000 nM
–	50 to 69%	70 to 90%	Cc1ncsc1-c1ccc([C@H](C)NC(=O)[C@@H]2C[C@@H](O)CN2C(=O)[C@@H](NC(=O)[C@H]2CC[C@H](CN3CC(N4CCC(c5ccc6c(c5)C5(CCCCC5)c5nc(=O)c7c(Cl)cccc7n5-6)CC4)C3)CC2)C(C)(C)C)cc1 [Compound A12, (2S,4R)-1-((S)-2-((1r,4S)-4-((3-(4-(4′-chloro-5′-oxo-5′H-spiro[cyclohexane-1,7′-indolo[1,2-a]quinazolin]-9′-yl)piperidin-1-yl)azetidin-1-yl)methyl)cyclohexane-1-carboxamido)-3,3-dimethylbutanoyl)-4-hydroxy-N—((S)-1-(4-(4-methylthiazol-5-yl)phenyl)ethyl)pyrrolidine-2-carboxamide]	–	501 to 1000 nM	–	100 to 500 nM
No fit	< 50%	70 to 90%	Cc1ncsc1-c1ccc([C@H](C)NC(=O)[C@@H]2C[C@@H](O)CN2C(=O)[C@@H](NC(=O)[C@H]2CC[C@H](CN3CCC(N4CCC(c5ccc6c(c5)C5(CCCCC5)c5nc(=O)c7c(Cl)cccc7n5-6)CC4)CC3)CC2)C(C)(C)C)cc1 [Compound A13, (2S,4R)-1-((S)-2-((1r,4S)-4-((4-(4′-chloro-5′-oxo-5′H-spiro[cyclohexane-1,7′-indolo[1,2-a]quinazolin]-9′-yl)-[1,4′-bipiperidin]-1′-yl)methyl)cyclohexane-1-carboxamido)-3,3-dimethylbutanoyl)-4-hydroxy-N—((S)-1-(4-(4-methylthiazol-5-yl)phenyl)ethyl)pyrrolidine-2-carboxamide]	–	–	–	< 100 nM
–	–	–	Cc1ncsc1-c1ccc([C@H](C)NC(=O)[C@@H]2C[C@@H](O)CN2C(=O)[C@@H](NC(=O)[C@H]2CC[C@H](CN3CCC(c4ccc5c(c4)C4(CCCCC4)c4nc(=O)c6c(Br)cccc6n4-5)CC3)CC2)C(C)(C)C)cc1 [Compound A14, (2S,4R)-1-((S)-2-((1r,4S)-4-((4-(4′-bromo-5′-oxo-5′H-spiro[cyclohexane-1,7′-indolo[1,2-a]quinazolin]-9′-yl)piperidin-1-yl)methyl)cyclohexane-1-carboxamido)-3,3-dimethylbutanoyl)-4-hydroxy-N—((S)-1-(4-(4-methylthiazol-5-yl)phenyl)ethyl)pyrrolidine-2-carboxamide]	50 to 69%	100 to 500 nM	> 90%	< 100 nM
No Fit	< 50%	> 90%	Cc1ncsc1-c1ccc([C@H](CN(C)C)NC(=O)[C@@H]2C[C@@H](O)CN2C(=O)[C@@H](NC(=O)[C@H]2CC[C@H](CN3CCC(c4ccc5c(c4)C4(CCCCC4)c4nc(=O)c6c(Br)cccc6n4-5)CC3)CC2)C(C)(C)C)cc1 [Compound A15]	–	–	–	< 100 nM

Compound	SMARC A4 Hela HiBit DC50(nM) (SMARCA4; [1])	Dmax (SMARCA4; [1])	Dmax (SMARCA2; [2])	Dmax (SMARCA4; HeLa)	DC50 (SMARCA4; [1])	Dmax (SMARCA2; HeLa)	DC50 (SMARCA2; [2])
Cc1ncsc1-c1ccc([C@H](C)NC(=O)[C@@H]2C[C@@H](O)CN2C(=O)[C@@H](NC(=O)CCCN2CCC(c3ccc4c(c3)C3(CCCCC3)c3nc(=O)c5c(Cl)cccc5n3-4)CC2)C(C)(C)C)cc1 [Compound A7, (2S,4R)-1-((S)-2-(4-(4-(4′-chloro-5′-oxo-5′H-spiro[cyclohexane-1,7′-indolo[1,2-a]quinazolin]-9′-yl)piperidin-1-yl)butanamido)-3,3-dimethylbutanoyl)-4-hydroxy-N—((S)-1-(4-(4-methylthiazol-5-yl)phenyl)ethyl) pyrrolidine-2-carboxamide]	No fit	–	–	< 50%	–	70 to 90%	100 to 500 nM
Cc1ncsc1-c1ccc([C@H](C)NC(=O)[C@@H]2C[C@@H](O)CN2C(=O)[C@@H](NC(=O)[C@H]2CC[C@H](CN3CCC(c4ccc5c(c4)C4(CCCCC4)c4nc(=O)c6c(Cl)cccc6n4-5)CC3)CC2)C(C)(C)C)cc1 [Compound A11, (2S,4R)-1-((S)-2-((1r,4S)-4-((4-(4′-chloro-5′-oxo-5′H-spiro[cyclohexane-1,7′-indolo[1,2-a]quinazolin]-9′-yl)piperidin-1-yl)methyl)cyclohexane-1-carboxamido)-3,3-dimethylbutanoyl)-4-hydroxy-N—((S)-1-(4-(4-methylthiazol-5-yl)phenyl)ethyl)pyrrolidine-2-carboxamide]	No fit	–	–	< 50%	–	70 to 90%	< 100 nM
